Read-outs that look alike come from different tables or passages of the source. Marks after values point to notes of the source that are not given here.
Columns and labels:
CHK2 = CHK2 (Homo sapiens, UniProt O96017); assay: CHK2 DELFIA kinase assay; assay type: biochemical; settings: data not shown
CDK1 = CDK1 (Homo sapiens, UniProt P06493); settings: data not shown
CaCo-2 permeability = assay type: in vitro ADME; settings: human
[1] = system: CHK1 S296 autophosphorylation in SW620 human colon cancer xenografts; assay: Gemcitabine-induced CHK1 phosphorylation in SW620 xenografts; assay type: in vivo, mouse; settings: single po dose at MTD (20: 160, 26: 300 mg/kg); 12 h after gemcitabine
[2] = Plasma and tumor drug levels in SW620 xenograft-bearing mice; assay type: in vivo, mouse; settings: po dose at MTD
[3] = system: SW620 human colon cancer xenograft; settings: SW620, q4d × 3, gemcitabine 100 mg/kg iv + 26 75 mg/kg po; cited from earlier work
[4] = system: HT29 human colon cancer xenograft; settings: cited from earlier work; for tumor growth delay (days), 26: HT29, q7d × 3, 26 75 mg/kg po alone
[5] = system: panel of 140 representative kinases; assay: Radiometric kinase panel summary, 1 μM; assay type: biochemical, human; settings: of 140 kinases
121 kinases = settings: against 89 out of the 121 enzymes, screen at 10 μM
AMPK = assay: radiometric kinase profiling; assay type: biochemical; settings: 1 μM
[6] = system: Calu6 human non-small cell lung cancer xenograft; settings: Calu6, q7d × 3, gemcitabine 100 mg/kg iv + 26 75 mg/kg po; cited from earlier work
[7] = system: pS296 CHK1 in HT29 colon tumor xenografts; settings: single doses 100–300 mg/kg po; cited from earlier work
[8] = 10 mg/kg iv, 6 h, 9 normalized from 5 mg/kg, 24 from 1 mg/kg, 20 from full PK

Sequence of CHK2 (O96017 whole entry, species assumed): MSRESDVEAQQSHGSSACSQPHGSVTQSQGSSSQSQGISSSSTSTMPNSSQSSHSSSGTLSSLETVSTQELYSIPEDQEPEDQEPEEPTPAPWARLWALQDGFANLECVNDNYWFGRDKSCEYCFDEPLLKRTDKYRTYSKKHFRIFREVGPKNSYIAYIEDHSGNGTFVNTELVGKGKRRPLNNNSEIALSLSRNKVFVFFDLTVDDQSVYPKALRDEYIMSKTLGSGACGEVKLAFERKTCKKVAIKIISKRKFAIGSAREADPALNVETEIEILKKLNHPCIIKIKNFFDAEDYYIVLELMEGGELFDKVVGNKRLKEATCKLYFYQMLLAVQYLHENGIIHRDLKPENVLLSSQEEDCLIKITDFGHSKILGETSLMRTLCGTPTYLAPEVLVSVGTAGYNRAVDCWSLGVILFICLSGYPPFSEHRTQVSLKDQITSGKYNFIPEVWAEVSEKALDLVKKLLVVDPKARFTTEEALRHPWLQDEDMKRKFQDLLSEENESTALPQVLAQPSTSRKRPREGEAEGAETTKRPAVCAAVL
Sequence of CDK1 (P06493 whole entry, looked up): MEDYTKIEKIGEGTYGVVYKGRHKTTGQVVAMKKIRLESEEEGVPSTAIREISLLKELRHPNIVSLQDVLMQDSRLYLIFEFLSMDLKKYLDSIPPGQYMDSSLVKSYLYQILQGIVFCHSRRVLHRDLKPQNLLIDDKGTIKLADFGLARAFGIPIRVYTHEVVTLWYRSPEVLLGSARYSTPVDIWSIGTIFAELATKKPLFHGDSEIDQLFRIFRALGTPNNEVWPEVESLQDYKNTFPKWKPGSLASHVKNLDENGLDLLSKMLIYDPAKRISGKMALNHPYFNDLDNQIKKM

COC(=O)c1cnc(Nc2cnc(C#N)c(O[C@@H]3CCNC3)n2)cc1N(C)C [Compound 10]
selectivity for CHK1 inhibition over CHK2 (CHK2): greater than 100 fold
selectivity for CHK1 inhibition over CDK1 (CDK1): greater than 100 fold

CNc1cc(Nc2cnc(C#N)c(O[C@H](C)CN(C)C)n2)ncc1C(F)(F)F [Compound 15]
efflux ratio (CaCo-2 permeability): > 6

CNc1cc(Nc2cnc(C#N)c(O[C@H](C)CN(C)C)n2)ncc1-c1cnn(C)c1 [Compound 20, (R)-3-((1-(Dimethylamino)propan-2-yl)oxy)-5-((5-(1-methyl-1H-pyrazol-4-yl)-4-(methylamino)pyridin-2-yl)amino)pyrazine-2-carbonitrile]
mouse plasma level iv, 1 h (10 mg/kg iv, 1 h, 9 normalized from 5 mg/kg, 24 from 1 mg/kg, 20 from full PK): 910 (±23) ^h nM
mouse plasma level iv, 6 h [8]: 45 (±10) ^h nM
mouse plasma level po, 1 h (10 mg/kg po, 1 h): 555 (±82) ^h nM
mouse plasma level po, 6 h (10 mg/kg po, 6 h): 57 (±7) ^h nM
inhibition of CHK1 S296 autophosphorylation, 12 h [1]: less powerful effect
fall in drug concentration between 6 and 12 h [2]: ca. 20 fold

CNc1cc(Nc2cnc(C#N)c(O[C@@H]3CCN(C)C3)n2)ncc1-c1cnn(C)c1 [Compound 24]
mouse plasma level iv, 6 h [8]: <20 ^i, ^j nM

COc1cc(Nc2cnc(C#N)c(O[C@H](C)CN(C)C)n2)ncc1-c1cnn(C)c1 [Compound 26, (R)-3-((1-(Dimethylamino)propan-2-yl)oxy)-5-((4-methoxy-5-(1-methyl-1H-pyrazol-4-yl)pyridin-2-yl)amino)pyrazine-2-carbonitrile]
enhancement in plasma levels at the 1 h time point relative to 20 (10 mg/kg, 1 h): 2 fold
tumor growth delay (days), combination [3]: 6.0 (±2.4) days
tumor growth delay (days), 26 ([4]; gemcitabine experiment): –1.8 (±2.1) days
tumor growth delay (days), 26 ([4]; irinotecan experiment): 0.30 (±1.4) days
tumor growth delay (days), combination ([4]; HT29, q7d × 3, gemcitabine 100 mg/kg iv + 26 75 mg/kg po at 24 and 48 h): 11.4 (±3.3) days
tumor growth delay (days), combination ([4]; HT29, q7d × 3, irinotecan 12.5 mg/kg i.p. + 26 75 mg/kg po): 13.5 (±2.4) days
number of enzymes strongly inhibited (>80%) [5]: 7
selectivity for CHK1 (121 kinases): > 1000 fold
inhibition (strongly inhibited) (AMPK): > 80%
inhibition of CHK1 S296 autophosphorylation, 12 h [1]: robust inhibition
fall in drug concentration between 6 and 12 h [2]: 2–3 fold
tumor growth delay (days), combination [6]: 15.9 (±2.5) days
duration of inhibition of gemcitabine-induced pS296 CHK1 [7]: up to 24 h
